Consider 33 compounds from patent publication US20230348418A1, “ISOINDOLINONE COMPOUNDS” (Monte Rosa Therapeutics, Inc., priority 2021, published 2023).

Each structure is given as a SMILES string. pIC50: −log10 of the molar value. Read-outs that look alike come from different tables or passages of the source.

This experiment concerns the target CRBN-DDB1 (Homo sapiens, UniProt Q96SW2). The experiment is described as follows: HTRF binding of compounds to CRBN. The protocol: Compound activity was monitored in a Homogenous Time-Resolved Fluorescence (HTRF) assay using 1-[5-({2-[2-(2-{[2-(2,6-dioxopiperidin-3-yl)-1,3-dioxo-2,3-dihydro-1H-isoindol-4-yl]oxy}acetamido)ethoxy]ethyl}carbamoyl)pentyl]-3,3-dimethyl-2-[(1E,3E)-5-[(2E)-1,3,3-trimethyl-5-sulfo-2,3-dihydro-1H-indol-2-ylidene]penta-1,3-dien-1-yl]-3H-indol-1-ium-5-sulfonate as a fluorescent probe. […] Compounds were stored in dry, ambient temperatures at 10 mM. A 10-point, 1:3 dilution series was prepared from 10 mM stock concentrations in Echo-compatible LDV plates. 10 nL of each compound dilution series was dispensed into assays wells using an Echo 650 (Labcyte inc. USA). […] The assay was then allowed to incubate for 30 min at ambient temperature after transferring compound. […] Analysis and IC50 values were derived using KNIME analytics (KNIME Zurich) transformation and fitting within Collaborative Drug Discovery (Collaborative Drug Discovery USA). Ki was derived from the geometric mean of the IC50 values using the Cheng-Prustoff transformation.
Background: In TR-FRET formats the signal depends on donor and acceptor labels being close together.

Where [1] appears, read: read-out: HTRF Class (Cereblon binding, HTRF IC50).

Chain of CRBN-DDB1 (Q96SW2 whole entry): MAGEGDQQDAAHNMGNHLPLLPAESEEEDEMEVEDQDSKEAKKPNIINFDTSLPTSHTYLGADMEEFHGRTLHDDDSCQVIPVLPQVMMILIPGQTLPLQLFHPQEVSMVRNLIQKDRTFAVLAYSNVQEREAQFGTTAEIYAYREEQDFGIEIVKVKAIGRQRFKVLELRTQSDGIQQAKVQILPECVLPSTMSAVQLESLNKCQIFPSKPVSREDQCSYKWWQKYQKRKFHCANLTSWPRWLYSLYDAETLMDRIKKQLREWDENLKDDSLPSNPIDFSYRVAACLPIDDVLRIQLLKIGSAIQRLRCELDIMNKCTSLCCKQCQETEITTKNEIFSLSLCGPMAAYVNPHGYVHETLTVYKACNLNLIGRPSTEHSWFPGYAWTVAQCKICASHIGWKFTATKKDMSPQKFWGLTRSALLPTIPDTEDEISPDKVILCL
Chain of CRBN-DDB1 (Q16531 whole entry partner): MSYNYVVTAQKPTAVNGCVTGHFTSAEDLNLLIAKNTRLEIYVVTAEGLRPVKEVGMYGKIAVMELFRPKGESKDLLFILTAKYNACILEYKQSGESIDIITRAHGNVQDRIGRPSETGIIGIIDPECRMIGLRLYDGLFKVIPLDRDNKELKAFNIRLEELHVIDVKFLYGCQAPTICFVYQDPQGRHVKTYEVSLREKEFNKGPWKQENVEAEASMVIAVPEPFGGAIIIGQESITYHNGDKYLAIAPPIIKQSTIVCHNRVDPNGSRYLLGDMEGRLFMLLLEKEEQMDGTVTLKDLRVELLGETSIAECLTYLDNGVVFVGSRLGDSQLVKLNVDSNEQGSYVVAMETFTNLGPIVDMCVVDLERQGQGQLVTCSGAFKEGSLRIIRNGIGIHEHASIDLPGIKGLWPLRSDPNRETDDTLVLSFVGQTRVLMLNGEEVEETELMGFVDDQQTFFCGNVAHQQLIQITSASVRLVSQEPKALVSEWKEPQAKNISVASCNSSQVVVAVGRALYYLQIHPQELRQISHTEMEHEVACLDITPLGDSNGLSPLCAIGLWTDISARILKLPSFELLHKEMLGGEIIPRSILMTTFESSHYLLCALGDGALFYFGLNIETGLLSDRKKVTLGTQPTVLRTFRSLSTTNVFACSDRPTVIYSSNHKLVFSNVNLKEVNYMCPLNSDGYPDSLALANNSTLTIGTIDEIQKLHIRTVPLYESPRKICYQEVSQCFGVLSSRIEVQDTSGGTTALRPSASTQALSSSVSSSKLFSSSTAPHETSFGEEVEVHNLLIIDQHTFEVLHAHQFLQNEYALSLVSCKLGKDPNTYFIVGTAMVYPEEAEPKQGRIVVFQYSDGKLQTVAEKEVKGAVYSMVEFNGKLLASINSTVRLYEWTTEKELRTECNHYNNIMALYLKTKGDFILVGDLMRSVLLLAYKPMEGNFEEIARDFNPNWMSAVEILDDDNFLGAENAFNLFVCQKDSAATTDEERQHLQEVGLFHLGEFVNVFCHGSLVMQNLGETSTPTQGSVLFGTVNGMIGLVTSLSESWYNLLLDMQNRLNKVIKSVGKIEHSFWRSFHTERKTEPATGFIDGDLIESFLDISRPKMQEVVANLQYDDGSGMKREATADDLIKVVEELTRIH

Turning to `Cc1cc(F)c(NC(=O)OCc2ccc3c(c2)C(=O)N(C2CCC(=O)NC2=O)C3)cc1F` (stereo not drawn) [Compound 213, (2-(2,6-dioxopiperidin-3-yl)-3-oxoisoindolin-5-yl)methyl (2,5-difluoro-4-methylphenyl)carbamate], under setting [1], the pIC50 is > 7.00.

In the case of `O=C1CCC(N2Cc3ccc(COC(=O)NC45CC(C(F)F)(C4)C5)cc3C2=O)C(=O)N1` (stereo not drawn) [Compound 219, (2-(2,6-dioxopiperidin-3-yl)-3-oxoisoindolin-5-yl)methyl (3-(difluoromethyl)bicyclo[1.1.1]pentan-1-yl) carbamate], the pIC50 under setting [1] is > 7.00.

As for `CC(C)(C)[C@H]1C[C@H](NC(=O)OCc2ccc3c(c2)C(=O)N(C2CCC(=O)NC2=O)C3)C1` (stereo partly drawn) [Compound 185, trans-(2-(2,6-dioxopiperidin-3-yl)-3-oxoisoindolin-5-yl)methyl ((1s,3s)-3-(tert-butyl)cyclobutyl)carbamate], under setting [1], the pIC50 was 6.00 to 7.00.

With `CCc1cccc(NC(=O)OCc2ccc3c(c2)C(=O)N(C2CCC(=O)NC2=O)C3)c1` (stereo not drawn) [Compound 220, (2-(2,6-dioxopiperidin-3-yl)-3-oxoisoindolin-5-yl)methyl (3-ethylphenyl)carbamate], the pIC50 under setting [1] was 6.00 to 7.00.

As to `COC(=O)C12CC(NC(=O)OCc3ccc4c(c3)C(=O)N(C3CCC(=O)NC3=O)C4)(C1)C2` (stereo not drawn) [Compound 203, methyl 3-((((2-(2,6-dioxopiperidin-3-yl)-3-oxoisoindolin-5-yl)methoxy)carbonyl)amino)bicyclo[1.1.1]pentane-1-carboxylate], the negative logarithm of the IC50 (pIC50) under setting [1] is 6.00 to 7.00.

As to `Cc1cc(F)c(NC(=O)OCc2ccc3c(c2)C(=O)N(C2CCC(=O)NC2=O)C3)cc1OC(F)(F)F` (stereo not drawn) [Compound 204, (2-(2,6-dioxopiperidin-3-yl)-3-oxoisoindolin-5-yl) methyl (2-fluoro-4-methyl-5-(trifluoromethoxy)phenyl)carbamate], under setting [1], the pIC50 was 6.00 to 7.00.

In the case of `COc1cc(NC(=O)OCc2ccc3c(c2)C(=O)N(C2CCC(=O)NC2=O)C3)c(F)cc1C` (stereo not drawn) [Compound 229, (2-(2,6-dioxopiperidin-3-yl)-3-oxoisoindolin-5-yl)methyl (2-fluoro-5-methoxy-4-methylphenyl)carbamate], under setting [1], the pIC50 was > 7.00.

Consider `O=C1CCC(N2Cc3ccc(COC(=O)NC45CC(c6ccccc6F)(C4)C5)cc3C2=O)C(=O)N1` (stereo not drawn) [Compound 174, (2-(2,6-dioxopiperidin-3-yl)-3-oxoisoindolin-5-yl)methyl (3-(2-fluorophenyl)bicyclo[1.1.1]pentan-1-yl) carbamate], for which the pIC50 under setting [1] was > 7.00.

Consider `CC(C)c1cccc(NC(=O)OCc2ccc3c(c2)C(=O)N(C2CCC(=O)NC2=O)C3)c1` (stereo not drawn) [Compound 217, (2-(2,6-dioxopiperidin-3-yl)-3-oxoisoindolin-5-yl)methyl (3-isopropylphenyl)carbamate], for which the pIC50 under setting [1] is 6.00 to 7.00.

As for `CCCOc1cc(NC(=O)OCc2ccc3c(c2)C(=O)N(C2CCC(=O)NC2=O)C3)c(F)cc1C` (stereo not drawn) [Compound 231, (2-(2,6-dioxopiperidin-3-yl)-3-oxoisoindolin-5-yl)methyl (2-fluoro-4-methyl-5-propoxyphenyl)carbamate], the negative-log IC50 (pIC50) under setting [1] was > 7.00.

For `O=C1CCC(N2Cc3ccc(COC(=O)Nc4cccc(OC(F)(F)F)c4F)cc3C2=O)C(=O)N1` (stereo not drawn) [Compound 169], the pIC50 was 6.00 to 7.00.

Turning to `Cc1ccc(NC(=O)OCc2ccc3c(c2)C(=O)N(C2CCC(=O)NC2=O)C3)nc1Cl` (stereo not drawn) [Compound 183, (2-(2,6-dioxopiperidin-3-yl)-3-oxoisoindolin-5-yl)methyl (6-chloro-5-methylpyridin-2-yl)carbamate], the negative-log IC50 (pIC50) under setting [1] was 6.00 to 7.00.

As for `CC(C)(C)Oc1ccc(F)c(NC(=O)OCc2ccc3c(c2)C(=O)N(C2CCC(=O)NC2=O)C3)c1` (stereo not drawn) [Compound 222, (2-(2,6-dioxopiperidin-3-yl)-3-oxoisoindolin-5-yl)methyl (5-(tert-butoxy)-2-fluorophenyl)carbamate], the pIC50 under setting [1] is 6.00 to 7.00.

As to `O=C1CCC(N2Cc3ccc(COC(=O)Nc4ccc(C(O)C(F)(F)F)nc4)cc3C2=O)C(=O)N1` (stereo not drawn) [Compound 238], the pIC50 is 6.00 to 7.00.

Turning to `Cc1ccc(NC(=O)OCc2ccc3c(c2)C(=O)N(C2CCC(=O)NC2=O)C3)c(F)c1Cl` (stereo not drawn) [Compound 179, (2-(2,6-dioxopiperidin-3-yl)-3-oxoisoindolin-5-yl) methyl (3-chloro-2-fluoro-4-methylphenyl)carbamate], the negative-log IC50 (pIC50) under setting [1] was 6.00 to 7.00.

Take `Cc1cc(F)c(NC(=O)OCc2ccc3c(c2)C(=O)N(C2CCC(=O)NC2=O)C3)c(F)c1Cl` (stereo not drawn) [Compound 211, (2-(2,6-dioxopiperidin-3-yl)-3-oxoisoindolin-5-yl)methyl (3-chloro-2,6-difluoro-4-methylphenyl)carbamate]: the pIC50 under setting [1] was > 7.00.

With `CC1(c2ccc(NC(=O)OCc3ccc4c(c3)C(=O)N(C3CCC(=O)NC3=O)C4)cc2F)COC1` (stereo not drawn) [Compound 240, (2-(2,6-dioxopiperidin-3-yl)-3-oxoisoindolin-5-yl)methyl (3-fluoro-4-(3-methyloxetan-3-yl)phenyl)carbamate], the pIC50 under setting [1] was 6.00 to 7.00.

Consider `Cc1cc(NC(=O)OCc2ccc3c(c2)C(=O)N(C2CCC(=O)NC2=O)C3)cc(Cl)c1C#N` (stereo not drawn) [Compound 177, (2-(2,6-dioxopiperidin-3-yl)-3-oxoisoindolin-5-yl)methyl(3-chloro-4-cyano-5-methylphenyl)carbamate], for which the pIC50 was 6.00 to 7.00.

Consider `CC1(c2ccc(NC(=O)OCc3ccc4c(c3)C(=O)N(C3CCC(=O)NC3=O)C4)cc2Cl)COC1` (stereo not drawn) [Compound 236, (2-(2,6-dioxopiperidin-3-yl)-3-oxoisoindolin-5-yl)methyl (3-chloro-4-(3-methyloxetan-3-yl)phenyl)carbamate], for which, under setting [1], the pIC50 is > 7.00.

As for `Cc1cc(F)c(NC(=O)OCc2ccc3c(c2)C(=O)N(C2CCC(=O)NC2=O)C3)cc1C` (stereo not drawn) [Compound 208, (2-(2,6-dioxopiperidin-3-yl)-3-oxoisoindolin-5-yl)methyl (2-fluoro-4,5-dimethylphenyl)carbamate], the pIC50 under setting [1] is 6.00 to 7.00.

Turning to `O=C1CCC(N2Cc3ccc(COC(=O)NC4CN(Cc5ccccc5)C4)cc3C2=O)C(=O)N1` (stereo not drawn) [Compound 168], the pIC50 is 6.00 to 7.00.

For the compound `CCOc1cc(NC(=O)OCc2ccc3c(c2)C(=O)N(C2CCC(=O)NC2=O)C3)c(F)cc1C` (stereo not drawn) [Compound 228], the negative-log IC50 (pIC50) was > 7.00.

Regarding `O=C1CCC(N2Cc3ccc(COC(=O)Nc4ccc(F)c(OC(F)F)c4F)cc3C2=O)C(=O)N1` (stereo not drawn) [Compound 191, (2-(2,6-dioxopiperidin-3-yl)-3-oxoisoindolin-5-yl)methyl (3-(difluoromethoxy)-2,4-difluorophenyl) carbamate], the pIC50 under setting [1] was 6.00 to 7.00.

With `C[C@@H]1CCCN1c1ccc(NC(=O)OCc2ccc3c(c2)C(=O)N(C2CCC(=O)NC2=O)C3)nc1` (stereo partly drawn) [Compound 192], the pIC50 is > 7.00.

Regarding `C[C@@H]1CCCN1c1cnc(NC(=O)OCc2ccc3c(c2)C(=O)N(C2CCC(=O)NC2=O)C3)c(F)c1` (stereo partly drawn) [Compound 232, (2-(2,6-dioxopiperidin-3-yl)-3-oxoisoindolin-5-yl)methyl (3-fluoro-5-((R)-2-methylpyrrolidin-1-yl)pyridin-2-yl)carbamate], the pIC50 under setting [1] is > 7.00.

With `O=C1CCC(N2Cc3ccc(COC(=O)NC45CC(CF)(C4)C5)cc3C2=O)C(=O)N1` (stereo not drawn) [Compound 202, (2-(2,6-dioxopiperidin-3-yl)-3-oxoisoindolin-5-yl)methyl (3-(fluoromethyl)bicyclo[1.1.1]pentan-1-yl) carbamate], the pIC50 under setting [1] is 6.00 to 7.00.

As to `Cc1cc(F)c(NC(=O)OCc2ccc3c(c2)C(=O)N(C2CCC(=O)NC2=O)C3)cc1C(F)(F)F` (stereo not drawn) [Compound 233], the pIC50 is 6.00 to 7.00.

Take `Cc1cc(NC(=O)OCc2ccc3c(c2)C(=O)N(C2CCC(=O)NC2=O)C3)ncc1N1CCC[C@H]1C` (stereo partly drawn) [Compound 237, (2-(2,6-dioxopiperidin-3-yl)-3-oxoisoindolin-5-yl)methyl (4-methyl-5-((R)-2-methylpyrrolidin-1-yl)pyridin-2-yl)carbamate]: under setting [1], the pIC50 was > 7.00.

Consider `O=C1CCC(N2Cc3ccc(COC(=O)Nc4cc(F)c5c(c4)CCO5)cc3C2=O)C(=O)N1` (stereo not drawn) [Compound 212, (2-(2,6-dioxopiperidin-3-yl)-3-oxoisoindolin-5-yl)methyl (7-fluoro-2,3-dihydrobenzofuran-5-yl)carbamate], for which the negative logarithm of the IC50 (pIC50) under setting [1] was > 7.00.

On to `O=C1CCC(N2Cc3ccc(COC(=O)Nc4ccc(C(O)C(F)(F)F)cc4)cc3C2=O)C(=O)N1` (stereo not drawn) [Compound 209, (2-(2,6-dioxopiperidin-3-yl)-3-oxoisoindolin-5-yl)methyl (4-(2,2,2-trifluoro-1-hydroxyethyl)phenyl) carbamate], for which, under setting [1], the pIC50 is 6.00 to 7.00.

On to `CC(C)(C)c1cccc(NC(=O)OCc2ccc3c(c2)C(=O)N(C2CCC(=O)NC2=O)C3)n1` (stereo not drawn) [Compound 170, (2-(2,6-dioxopiperidin-3-yl)-3-oxoisoindolin-5-yl)methyl (6-(tert-butyl)pyridin-2-yl)carbamate], for which the pIC50 under setting [1] was 6.00 to 7.00.

As for `CCCOc1ccc(F)c(NC(=O)OCc2ccc3c(c2)C(=O)N(C2CCC(=O)NC2=O)C3)c1` (stereo not drawn) [Compound 226, (2-(2,6-dioxopiperidin-3-yl)-3-oxoisoindolin-5-yl)methyl (2-fluoro-5-propoxyphenyl)carbamate], the pIC50 under setting [1] was 6.00 to 7.00.

In the case of `CC(C)Oc1ccc(F)c(NC(=O)OCc2ccc3c(c2)C(=O)N(C2CCC(=O)NC2=O)C3)c1` (stereo not drawn) [Compound 221, (2-(2,6-dioxopiperidin-3-yl)-3-oxoisoindolin-5-yl)methyl (2-fluoro-5-isopropoxyphenyl)carbamate], the pIC50 under setting [1] is > 7.00.

The term pIC50 denotes the IC50 on a negative log10 scale, so that one unit is a factor of ten.
